Reference: patent US8288442B2, “Use of derivatives of valproic acid amides and 2-valproenic acid amides for the treatment or prevention of pain and/or headache disorders” (Yissum Research Development Company of The Hebrew …, priority 2000, dated 2012)

Key:
Chung model = Chung model of neuropathic pain (L5/L6 spinal nerve ligation, tactile allodynia, von Frey filaments); format: in vivo, rat; details: 300 mg/kg per os, male Sabra rats
Text: The potential of Compound 1 to serve as an anti-pain agent was studied in the Chung model (Kim, S. H. and Chung, J. M.). This model is known as a reliable model, predictive for human pain. (Kim, S. H. and Chung, J. M.). In this model, spinal nerves L5 and L6 of the rat are tightly ligated and cut in order to induce neuropathic pain. Male Sabra rats weighing 250-275 g were used throughout the study. Under xylazine-ketamine anesthesia, both the L5 and L6 spinal nerves of one side of the rat were tightly ligated and cut. Pain behavior was measured following operation in all groups using withdrawal latencies of the hind paw to mechanical stimulation with von Frey filaments (tactile allodynia). The mechanical sensitivity of the foot was quantified by the occurrence of foot withdrawal in response to normally innocuous mechanical stimuli. Eight different von Frey filaments ranging from 0.6 to 26 g were used.
The efficacy (antiallodynic effect) of the compound was evaluated (300 mg/kg, per os (oral)) in eight rats at days 7 and 14 postoperation in a double-blind randomized crossover manner. The testing included estimation of time of peak effect following drug administration and measurement of the ability of the compound to decrease tactile allodynia.

[1] = system: plasma protein extravasation; test: migraine model of Moskowitz (plasma protein extravasation into the dura mater); format: in vivo; details: control = 100
Text: Evaluation of the anti-headache effects of Compounds 1 and 2 are followed in the migraine model of Moskowitz (Suzzi, M. C. and Moskowitz, M. A.). In this model, neurogenic inflammation results in the leakage of plasma proteins into the dura matter (plasma protein extravasation), which can be quantified by measuring the leakage of radioactive albumin (Suzzi, M. C. and Moskowitz, M. A.).

[2] = system: rat constriction injury model; test: rat chronic constriction injury model of neuropathic pain (cold allodynia); format: in vivo; details: read-out: ED50 for reversal of cold allodynia
Method: The anti-pain effects of Compounds 1 and 2 are evaluated in a model for traumatic nerve injury. The specific model is the rat constriction injury model, a commonly accepted model for the evaluation of the potential of a compound to treat chronic neuropathic pain. The end point is whether a compound can reverse cold allodynia in rats following a neuropathic injury. MC may be used as the control.

SMILES	Time of peak effect (Chung model; antiallodynic effect) [min]	Effect on tactile allodynia in comparison to vehicle (Chung model; days 7 and 14 postoperation, significant at 60 min (p=0.0207) and 120 min (p=0.0102))	Percent Extravasation Compared to Control [1]	ED50 [2] [mg/kg]
CCCC(CCC)C(=O)NCC(N)=O [Compound 1, N-(2-n-propylpentanoyl)glycinamide]	60	reversed tactile allodynia	<100	< 500
CC/C=C(\CCC)C(=O)NCC(N)=O [Compound 2, N-(2-n-propylpent-2-enoyl)glycinamide]			<100	< 500
